In the experiment the test system is MDA-MB-231 cells. Briefly: In vitro invasion assay through collagen membrane (CytoSelect). The class given is cell-based, human. The following applies: addition to MCAK (CIN-low) cells. The method, then: For the invasion and migration/chemotaxis assays the CytoSelect cell invasion (CBA-110) and cell migration (CBA-100) kits, respectively, were used. Briefly, 3×10^5 cells were suspended in serum-free media and placed on top of the membrane. […] For the chemotaxis assay, we used a colorimetric approach (OD 560 nm) for quantification. For the scratch assay, cells were treated with mitomycin C (10 μgml^−1) for 1 hour when they reached >90% confluence and then placed in DMEM containing 1% FBS. Wounds were applied using p200 pipette tip and images of the wound were taken immediately and at subsequent regular intervals. ImageJ was used for quantification of wound surface area.

From US11821042B2, “Targeting chromosomal instability and downstream cytosolic DNA signaling for cancer treatment” (Cornell University, priority 2017, dated 2023) come the findings set out here.

For `Nc1nc2c(ncn2[C@@H]2O[C@@H]3COP(=O)(O)O[C@H]4[C@@H](O)[C@H](n5cnc6c(N)ncnc65)O[C@@H]4COP(=O)(O)O[C@@H]2[C@@H]3O)c(=O)[nH]1` [cGAMP, cyclic guanosine monophosphate-adenosine monophosphate], the “ability to migrate and invade through a collagen membrane” value is “increased”.
